According to the supplement of paper PMC10307832:

Legend:
Experiment in all cases: relative viability (nuclei count vs DMSO), 5 days (fraction); higher = more cells survive
[1] = compound: CCC1=CN=CN=C1N2CCN(CC2)CC3=NC4=C(N3)C=C(C=C4)C(F)(F)F + CS(=O)(=O)N1CCN(Cc2cc3nc(-c4cccc5[nH]ncc45)nc(N4CCOCC4)c3s2)CC1 [Pictilisib] (partner 1 µM)
Outline: (§1)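 Each reported value is a median over duplicate plates. It expresses relative viability: treated-well nuclei count divided by vehicle-well nuclei count. Lung cancer cell lines in 1536-well plates were dosed by pin tool a day after seeding, alone with one drug or with a fixed anchor-drug dose plus five library-drug doses (not always all listed) in √10 steps, and nuclei were counted after 5 days.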

[2] = compound: CCn1c(-c2nonc2N)nc2cnc(Oc3cccc(NC(=O)c4ccc(OCCN5CCOCC5)cc4)c3)cc21 + CS(=O)(=O)CCNCc1ccc(-c2ccc3ncnc(Nc4ccc(OCc5cccc(F)c5)c(Cl)c4)c3c2)o1 [Lapatinib] (partner 2 µM)
Outline: as §1

Mirin + Navitoclax = compound: N=C1NC(=O)/C(=C/c2ccc(O)cc2)S1 [Mirin] + CC1(C)CCC(c2ccc(Cl)cc2)=C(CN2CCN(c3ccc(C(=O)NS(=O)(=O)c4ccc(N[C@H](CCN5CCOCC5)CSc5ccccc5)c(S(=O)(=O)C(F)(F)F)c4)cc3)CC2)C1 [Navitoclax] (partner 0.5 µM)
Outline: as §1

Mirin + Linsitinib = compound: N=C1NC(=O)/C(=C/c2ccc(O)cc2)S1 [Mirin] + C[C@]1(O)C[C@@H](c2nc(-c3ccc4ccc(-c5ccccc5)nc4c3)c3c(N)nccn32)C1 [Linsitinib] (partner 1 µM)
Outline: as §1

| Cell Line | relative viability ([1]; first compound 0.04 µM) | relative viability ([1]; first compound 0.1265 µM) | relative viability ([1]; first compound 0.4 µM) | relative viability ([1]; first compound 4 µM) | relative viability ([2]; first compound 0.04 µM) | relative viability ([2]; first compound 0.1265 µM) | relative viability ([2]; first compound 0.4 µM) | relative viability ([2]; first compound 1.265 µM) | relative viability ([2]; first compound 4 µM) | relative viability (Mirin + Navitoclax; first compound 0.25 µM) | relative viability (Mirin + Navitoclax; first compound 0.7906 µM) | relative viability (Mirin + Navitoclax; first compound 2.5 µM) | relative viability (Mirin + Navitoclax; first compound 7.906 µM) | relative viability (Mirin + Navitoclax; first compound 25 µM) | relative viability (Mirin + Linsitinib; first compound 0.25 µM) | relative viability (Mirin + Linsitinib; first compound 0.7906 µM) | relative viability (Mirin + Linsitinib; first compound 2.5 µM) | relative viability (Mirin + Linsitinib; first compound 7.906 µM) | relative viability (Mirin + Linsitinib; first compound 25 µM) | relative viability ([1]; first compound 1.265 µM) |
| --- | --- | --- | --- | --- | --- | --- | --- | --- | --- | --- | --- | --- | --- | --- | --- | --- | --- | --- | --- | --- |
| SK-LU-1 | 0.573 | 0.494 | 0.469 | 0.486 | 1.24 | 0.662 | 0.611 | 0.493 | 0.449 | 1.05 | 0.909 | 0.793 | 0.772 | 0.498 | 1.14 | 1.15 | 1.17 | 0.74 | 0.566 |  |
| NCI-H838 | 0.507 | 0.531 | 0.41 | 0.482 | 0.804 | 0.485 | 0.323 | 0.281 | 0.261 | 1.19 | 1.24 | 1.31 | 1.19 | 1.11 | 1.01 | 1.14 | 1.12 | 1.1 | 0.761 | 0.258 |
| LCLC-97TM1 | 0.181 | 0.198 | 0.181 | 0.214 | 1.78 | 1.54 |  | 1.74 | 1 | 0.314 | 0.515 | 0.511 | 0.194 | 0.288 | 0.174 | 0.166 | 0.177 | 0.143 | 0.141 | 0.204 |
| BEN | 0.593 | 0.557 | 0.503 | 0.331 | 0.627 | 0.695 | 0.348 | 0.279 | 0.317 | 0.0987 | 0.0819 | 0.0674 | 0.0737 | 0.0559 | 0.821 | 1.37 | 0.973 | 0.809 | 0.502 | 0.343 |
| NCI-H2023 | 0.274 | 0.225 | 0.216 | 0.319 | 1.25 | 0.797 | 0.515 | 0.555 | 0.373 | 0.991 | 0.963 | 1.01 | 0.995 | 0.972 | 0.709 | 0.674 | 0.653 | 0.684 | 0.522 | 0.192 |
| LC-2-ad | 0.459 | 0.512 | 0.424 | 0.326 | 0.992 | 0.968 | 0.578 | 0.435 | 0.412 | 0.452 | 0.673 | 0.466 | 0.36 | 0.401 | 0.816 | 1.03 | 0.937 | 0.833 | 0.732 | 0.328 |
| NCI-H1755 | 0.384 | 0.377 | 0.372 | 0.371 | 1.11 | 0.928 | 0.713 | 0.641 | 0.6 | 1.03 | 1.11 | 1.03 | 1.09 | 1.14 | 1.03 | 1.12 | 1.01 | 1.06 | 1.1 | 0.19 |
| EPLC-272H | 0.305 | 0.285 | 0.287 | 0.284 | 1.46 | 0.903 | 0.796 | 0.187 | 0.827 | 1.08 |  | 1.09 | 0.965 | 0.808 | 1.1 |  | 1.16 | 0.978 | 0.831 | 0.302 |
| NCI-H1437 | 0.511 | 0.404 | 0.395 | 0.439 | 0.826 | 0.679 | 0.58 | 0.536 | 0.5 | 1.09 | 1.09 | 1.12 | 1.07 | 1.05 | 1.09 | 1.01 | 1.07 | 0.784 | 0.33 | 0.336 |
| EKVX | 0.395 | 0.388 | 0.373 | 0.444 | 0.446 | 0.221 | 0.177 | 0.197 | 0.229 | 1.01 | 0.932 | 1.11 | 0.875 | 0.968 | 1.11 | 0.959 | 1.03 | 0.933 | 1 | 0.307 |
| NCI-H1651 | 0.625 | 0.607 | 0.487 | 0.675 | 0.998 | 0.819 | 0.639 | 0.49 | 0.421 | 1.01 | 0.97 | 1.01 | 0.826 | 0.836 | 1.06 | 1.01 | 0.982 | 0.741 | 0.856 | 0.65 |
| HCC-15 | 0.667 | 0.676 | 0.677 | 0.805 | 0.962 | 0.736 | 0.779 | 0.628 | 0.745 | 0.755 | 0.689 | 0.762 | 0.713 | 0.52 | 0.791 | 0.849 | 0.897 | 0.779 | 0.534 | 0.532 |
| NCI-H2347 | 0.58 | 0.591 | 0.652 | 0.671 | 0.833 | 0.911 | 0.704 | 0.446 | 0.536 | 0.8 | 0.784 | 0.812 | 0.825 | 0.893 | 0.923 | 1.09 | 0.98 | 0.989 | 0.985 |  |
| NCI-H1792 | 0.361 | 0.3 | 0.215 | 0.25 | 1 | 0.869 |  | 0.567 | 0.793 | 0.611 | 0.529 | 0.68 | 0.583 | 0.695 | 0.597 | 0.592 | 0.617 | 0.505 | 0.589 | 0.188 |
| NCI-H647 |  | 0.433 |  | 0.399 | 1.26 | 0.774 | 0.634 | 0.526 | 0.548 | 1.05 |  | 1.06 | 1.11 | 1.08 | 1.37 | 1.44 | 1.19 | 1 | 0.63 |  |
| NCI-H520 | 0.326 | 0.28 | 0.238 | 0.279 | 1 | 0.897 | 0.632 | 0.385 | 0.312 | 1.03 | 1.11 | 1.35 | 0.829 | 0.676 | 0.969 | 0.921 | 0.946 | 0.803 | 0.638 | 0.255 |
